Experimental findings from the OPERA property sets (Mansouri et al. 2018) are described below.

Settings in one series: not given
`O=C(C(F)(F)Cl)C(F)(F)Cl`: the boiling point was determined as 44.5 °C.

In turn, `NC[C@H](O)c1ccccc1` came in with a melting point of 56.5 °C. The compound `CC1CCCCC1O` (centres undefined) came in with a boiling point of 164 °C and a log10 Henry constant (atm·m³/mol) of -5.12.

Take `COC(=O)CCc1ccccc1`: the boiling point was 238 °C.

With `CCC(C)(C)c1ccc(O)c(C(C)(C)CC)c1`, the melting point is 25 °C and the ready biodegradability entry was “not readily biodegradable”. In turn, `O=C1c2cccc(O)c2C(=O)c2c(O)cc(CO)cc21` returned a melting point of 224 °C.

In turn, `CN(C)C(=O)Nc1ccc(Cl)cc1` yielded a log10 Koc (L/kg) of 1.95, a log10 vapour pressure (mmHg) of -6.3 and a melting point of 170 °C. For `CN1CCN(C(c2ccccc2)c2ccccc2)CC1`, the melting point came to 106 °C.

For the compound `CC(=O)c1ccc(O)cc1C`, the boiling point came out at 313 °C and the melting point stood at 128 °C. The matching figures for `O=[N+]([O-])c1ccc(Cl)c(C(F)(F)F)c1`: 232 °C and 22 °C. `C#CC(C)(CC)OC(=O)c1ccccc1C(=O)O` (centres undefined): the melting point stood at 97 °C.

For `OCc1ccc(Cl)cc1`, the boiling point worked out at 235 °C and the melting point is 75 °C. The corresponding values for `CC(C)c1ccc(Br)cc1` are 219 °C and -22.5 °C.

For `O=[N+]([O-])c1ccc(Oc2c(Cl)cc(Cl)cc2Cl)cc1`, the log10 Koc (L/kg) was determined as 3.9, the melting point stood at 106 °C and the ready biodegradability entry is recorded as “not readily biodegradable”. Compound `CCOC(=O)CC(=O)C(F)(F)F` displayed a boiling point of 133 °C.

Consider `Cc1ccc(NC2=NCCN2)c(Cl)c1`, for which the melting point was 149 °C. Still for that read-out and setting: with `COC(=O)Nc1nc2ccc(C(=O)c3ccc(F)cc3)cc2[nH]1` the figure was 260 °C. The compound `Clc1cc2c(oc3c(Cl)c(Cl)c(Cl)c(Cl)c32)c(Cl)c1Cl` gave a log10 Koa of 11.2, a log10 vapour pressure (mmHg) of -10.5 and a melting point of 233 °C. `CCOC(=O)c1ccc(OCC)cc1`: the boiling point stood at 275 °C. Still for that read-out and setting: the figure for `CCC(O)CCl` (centres undefined) is 141 °C. For `CCOc1ccccc1[N+](=O)[O-]`, the boiling point came out at 267 °C and the melting point was found to be 2.2 °C. Turning to `C=CCCCCCCC=C`, the boiling point is 167 °C. Consider `CCCCC#N`, for which the boiling point was found to be 141 °C, the log10 Koa came to 3.6, the log10 vapour pressure (mmHg) is 0.863 and the melting point is -96.2 °C. Consider `CCc1cc2c(s1)N(C)C(=O)CN=C2c1ccccc1Cl`, for which the melting point was found to be 119 °C. Regarding `CCCCCC[Si](Cl)(Cl)Cl`, the boiling point is 190 °C.

On to `O=Cc1ccc(Cl)c(Cl)c1`, for which the boiling point worked out at 248 °C and the melting point came out at 44 °C. As for `CCCCCCCCCCCCCCCCCCOS(=O)(=O)[O-].[Na+]`, the melting point came out at 212 °C.

In turn, `CCCCCCCCCc1ccc2ccccc2c1` returned a boiling point of 372 °C and a melting point of 12 °C. `Clc1cc2oc3ccc(Cl)c(Cl)c3c2cc1Cl`: the log10 Koa was found to be 9.78, the log10 vapour pressure (mmHg) is -7.74 and the melting point is 210 °C. In turn, `C=CCBr` returned a boiling point of 70.1 °C and a melting point of -119 °C. `Clc1ccc(Oc2cccc(Cl)c2Cl)cc1`: the log10 vapour pressure (mmHg) was -3.94. `Cc1cccc2[nH]ccc12` registered a boiling point of 267 °C and a melting point of 5 °C.

For the compound `Brc1ccncc1`, the melting point turned out to be 0.5 °C. Still for that read-out and setting: the figure for `O=C(OCC(COC(=O)c1ccccc1)OC(=O)c1ccccc1)c1ccccc1` is 76 °C.

The compound `CCC(CC)(CO)CO` returned a boiling point of 240 °C and a melting point of 61.5 °C. `c1ccc(CNCc2ccccc2)cc1` had a log10 vapour pressure (mmHg) of -3.1 and a melting point of -26 °C.

Regarding `Nc1ccc2[nH]ncc2c1`, the melting point worked out at 176 °C. Consider `C=C(C)C(=O)OC`, for which the boiling point amounted to 100 °C, the log10 vapour pressure (mmHg) is 1.59, the melting point is -48 °C and the ready biodegradability result is recorded as “readily biodegradable”. Turning to `CCCN(CCCl)c1c([N+](=O)[O-])cc(C(F)(F)F)cc1[N+](=O)[O-]`, the log10 Koc (L/kg) amounted to 3.55, the log10 vapour pressure (mmHg) is -4.52 and the melting point turned out to be 42 °C. With `CCCCOc1ccc(C(=O)O)cc1`, the melting point turned out to be 148 °C. In the case of `CC(C)CCC[C@@H](C)[C@H]1CC[C@H]2[C@@H]3CC=C4C[C@@H](O)CC[C@]4(C)[C@H]3CC[C@]12C`, the boiling point was 360 °C and the melting point was found to be 145 °C. `O=C1c2ccccc2C(=O)N1SC(F)(Cl)Cl`: the ready biodegradability result is recorded as “not readily biodegradable”. `CC(CCO)CC(F)(F)F` (centres undefined): the boiling point is 159 °C. The compound `Cc1cc(O)c(C(C)(C)C)cc1C(C)(C)C` had a boiling point of 282 °C and a melting point of 62.1 °C. The matching figures for `Cc1ccc2[nH]c(C)c(C)c2c1`: 297 °C and 122 °C. The matching figures for `CC[B]CC`: 112 °C and -56.3 °C. On to `Nc1ccc([N+](=O)[O-])cc1N`, for which the melting point is 200 °C. For the compound `CCCCCCCOC=O`, the boiling point came to 178 °C. Still for that read-out and setting: with `CC(C)(C)CC(=O)Cl` the figure was 130 °C; with `CC1CC(C)NC(C)(C)C1` (centres undefined), 156 °C. In turn, `Fc1cccc(F)c1` yielded a boiling point of 82.6 °C, a log10 vapour pressure (mmHg) of 1.92 and a melting point of -69 °C. As for `C[C@H]1O[C@@H](n2cc(F)c(=O)[nH]c2=O)[C@H](O)[C@@H]1O`, the melting point is 190 °C.

For `CCCCCCCCCCCCCCCCCCOCC(O)CO` (centres undefined), the melting point stood at 70.5 °C. For `C=CC(C)=O`, the boiling point came out at 81.4 °C, the log10 Henry constant (atm·m³/mol) is -4.33 and the ready biodegradability entry was “not readily biodegradable”.

For the compound `O=C(O)CCc1c[nH]c2ccccc12`, the melting point was found to be 134 °C. The same measure, in the same setting: with `NC(=O)Nc1cccc2ccccc12` the figure was 220 °C; with `CCC(c1ccc(O)c(C)c1)C(CC)c1ccc(O)c(C)c1` (centres undefined), 145 °C. On to `CC(C)(C)C(=O)OCOC(=O)[C@@H]1N2C(=O)[C@@H](N=CN3CCCCCC3)[C@H]2SC1(C)C`, for which the melting point came to 119 °C. On the same count and under the same terms, the figure for `CCC(C)C(=O)NC1CCC(=O)N(CCc2ccccc2)C1=O` (centres undefined) is 108 °C; for `CCNCC(O)c1cccc(O)c1` (centres undefined) it is 148 °C.

`Nc1ccc(C(=O)O)c(N)c1` registered a melting point of 140 °C. On to `CCC(C)C(O)C(C)CC` (centres undefined), for which the boiling point came out at 186 °C. Same read-out and setting: with `S=C(Cl)Cl` the figure was 73 °C.

Compound `CON=O` came in with a boiling point of -12 °C and a melting point of -16 °C.

Regarding `Oc1ccc(Cl)cc1Cc1ccccc1`, the log10 vapour pressure (mmHg) is -5.85, the melting point came to 48.5 °C and the ready biodegradability result is “readily biodegradable”. For `COC(CCl)OC`, the boiling point was found to be 128 °C. For the compound `CC(C)OC(C)C`, the boiling point is 68.5 °C, the log10 Henry constant (atm·m³/mol) is -2.59, the log10 Koa was 2.66 and the log10 vapour pressure (mmHg) is 2.17. The melting point is -86.8 °C and the ready biodegradability result is “not readily biodegradable”. `Cc1cc(-c2cc(C)c(O)c(C)c2)cc(C)c1O`: the melting point was 222 °C. Same read-out and setting: with `O=C(O)C(O)(O)C(O)(O)C(=O)O` the figure was 114 °C.

In turn, `Brc1ccc(Oc2ccccc2)c(Br)c1` gave a log10 Koa of 8.37. `ClCC=C(Cl)Cl`: the boiling point was determined as 132 °C.

Still in this series, the particulars now being: fish.
For the compound `CC(C)(c1ccc(OC(F)(F)C(F)F)cc1)c1ccc(OC(F)(F)C(F)F)cc1`, the log10 BCF was found to be 4.35 and the log10 biotransformation half-life (days) was 2.79.

The compound `O=[N+]([O-])c1ccc(Oc2c(Cl)cc(Cl)cc2Cl)cc1` gave a log10 BCF of 3.31 and a log10 biotransformation half-life (days) of 0.75. The matching figures for `Clc1cc2c(oc3c(Cl)c(Cl)c(Cl)c(Cl)c32)c(Cl)c1Cl`: 3.45 and 0.9. In the case of `CC1CCC(C(=O)O)C(C(=O)O)C1` (centres undefined), the log10 BCF was determined as 0.38. The same measure, in the same setting: with `CC(C)=C1C=C2CCC3C(C)(C(=O)O)CCCC3(C)C2CC1` (centres undefined) the figure was 2.17.

In general, boiling point refers to the temperature of boiling at a given pressure. As usually defined, the melting point is the temperature, or range, at which the solid turns liquid.
